The text below walks through data of US11274079B2 (DALIAN INSTITUTE OF CHEMICAL PHYSICS, CHINESE ACADEMY OF …, priority 2018, dated 2022).

For one assay, the target named is T1, M3 receptor (Homo sapiens, UniProt P20309).
T1 construct: HT-29 cell model endogenously highly expressing the M3 receptor; endogenous in cells; host or cells: HT-29
The experiment in a line: DMR assay, antagonism of acetylcholine in HT-29 cells endogenously expressing the M3 receptor. The note with it: for IC50: DMR, acetylcholine 16 μM, 1 h pretreatment, time point 30 min. The assay is classed as cell-based. How it is done:
(§1) The present invention relates to the antagonistic activity of the compound against the muscarinic receptor, which is primarily assessed by a cell-level dynamic mass redistribution (DMR) assay method. All tests are carried out on Epic platform, wherein the target model of the muscarinic receptor M1 is the CHO-K1 ceil model stably transfecting the M1 receptor, the target model of M3 is the HT-29 cell model endogenously highly expressing the M3 receptor, and the selected probe molecule is acetylcholine. Tire probe molecule acetylcholine is dissolved in water, while all other compounds are dissolved in DMSO.
The inoculated cell plate is placed in a cell incubator for culture for 20 h until the cell growth and fusion degree reaches about 95%, and the activity assay is carried out. The culture medium is sucked from the cultured cells, the buffer salt specified by the test is added with a volume of 30 μL per orifice and is stabilized for 1 h. After the baseline is stable, a 2-min baseline is established, and different concentrations of compounds to be tested are added to test the cultured cells for 1 h.

In another assay the target is T2, M1 receptor (Homo sapiens, UniProt P11229).
T2 construct: expressed in transfected cells; host or cells: CHO-K1
T2 sequence (P11229 1-460): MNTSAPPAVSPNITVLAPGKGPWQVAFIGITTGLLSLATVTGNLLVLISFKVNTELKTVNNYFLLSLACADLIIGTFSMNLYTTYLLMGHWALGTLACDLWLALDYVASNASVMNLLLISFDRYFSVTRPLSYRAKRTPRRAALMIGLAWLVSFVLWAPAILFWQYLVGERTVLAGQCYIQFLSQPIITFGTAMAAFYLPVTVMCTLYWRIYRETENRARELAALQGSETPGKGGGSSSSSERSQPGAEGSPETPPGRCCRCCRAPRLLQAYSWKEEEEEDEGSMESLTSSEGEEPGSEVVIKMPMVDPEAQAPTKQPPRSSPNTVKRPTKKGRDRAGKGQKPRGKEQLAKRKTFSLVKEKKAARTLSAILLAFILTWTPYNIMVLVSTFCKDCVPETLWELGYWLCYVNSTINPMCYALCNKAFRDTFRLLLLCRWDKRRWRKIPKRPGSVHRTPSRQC
The experiment in a line: DMR assay, antagonism of acetylcholine in CHO-K1 cells stably transfecting the M1 receptor. The assay is classed as cell-based. The note with it: for IC50: DMR, acetylcholine 1 μM, 1 h pretreatment, time point 5 min; for antagonistic activity against the M1 receptor, in words: structure-activity comparison with parent compound. As to the method:
as §1
The inoculated cell plate is placed in a cell incubator for culture for 12 h until the cell growth and fusion degree reaches about 95%, and the activity assay is carried out. The culture medium is sucked from the cultured ceils, the buffer salt specified by the test is added with a volume of 30 μL per orifice and is stabilized for 1 h. After the baseline is stable, a 2-min baseline is established, and different concentrations of compounds to be tested are added to test the cultured cells for 1 h. After the cells are pretreated with the compounds to be tested for 1 h, the 2-min baseline is re-established, and acetylcholine having a concentration of 1 μM is added to test the cultured cells for 1 h.

T1 sequence (P20309 whole entry): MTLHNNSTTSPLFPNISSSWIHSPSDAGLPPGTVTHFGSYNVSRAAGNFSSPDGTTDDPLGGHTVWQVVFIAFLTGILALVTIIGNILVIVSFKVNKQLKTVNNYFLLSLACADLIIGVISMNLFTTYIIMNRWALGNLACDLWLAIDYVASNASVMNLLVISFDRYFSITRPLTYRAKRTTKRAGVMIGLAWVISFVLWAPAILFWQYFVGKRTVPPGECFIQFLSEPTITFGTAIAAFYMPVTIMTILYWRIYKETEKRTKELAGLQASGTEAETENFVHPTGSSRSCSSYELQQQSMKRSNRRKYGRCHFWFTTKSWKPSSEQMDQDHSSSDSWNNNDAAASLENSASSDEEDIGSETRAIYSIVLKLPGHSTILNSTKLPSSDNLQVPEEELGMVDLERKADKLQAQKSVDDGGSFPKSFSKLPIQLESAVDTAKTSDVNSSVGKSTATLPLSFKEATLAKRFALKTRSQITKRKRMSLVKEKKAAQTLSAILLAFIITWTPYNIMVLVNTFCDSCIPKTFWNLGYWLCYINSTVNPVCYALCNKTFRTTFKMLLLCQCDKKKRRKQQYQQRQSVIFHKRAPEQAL

As usually defined, the IC50 is the concentration that inhibits the measured activity by half. `Cc1ccc(O)c(C(CC2CCCC[N+]2(C)C)c2ccccc2)c1` (centres unmarked) [I-4b-1-Br, 2-[2-(2-hydroxy-5-methyl-phenyl)-phenethyl]-N,N-dimethylpiperidine Bromide]: the concentration for half-maximal inhibition (IC50) on M3 receptor (HT-29 cells) was found to be 0.0271 ± 0.0053 µM; at M1 receptor (CHO-K1-M1 cells), 0.0475 ± 0.0135 µM. The corresponding values for `CCCc1ccc(O)c(C(CC2CCCC[N+]2(C)C)c2ccccc2)c1` (centres unmarked) [I-6, 2-[2-(2-hydroxy-5-propyl-phenyl)-phenethyl]-N,N-dimethylpiperidine Bromide] are 0.0203 ± 0.0036 µM and 0.133 ± 0.0228 µM. `CCc1cccc(C(CC2CCCCN2C)c2cc(C(C)C)cc(C)c2O)c1` (centres unmarked) [II-16, 2-[2-(2-hydroxy-3-methyl-5-isopropylphenyl)-2-(3-ethylphenyl)-ethyl]-N-methylpiperidine]: on M3 receptor (HT-29 cells), the IC50 was 0.371 ± 0.0678 µM.

Take `C[N+]1(C)CCCCC1CC(c1ccccc1O)c1ccccc1O` (centres unmarked) [I-3-I, 2-[2,2-bis(2-hydroxyphenyl)ethyl]-N,N-dimethylpiperidine Iodide]: the values for the IC50 at M3 receptor (HT-29 cells) and at M1 receptor (CHO-K1-M1 cells) were 0.0069 ± 0.0013 µM and 0.0635 ± 0.0151 µM, respectively. On the same counts, the results for `Cc1ccc(O)c(C(CC2CCCC[N+]2(C)C)c2ccccc2)c1` (single isomer, unassigned) [I-4b-Br, 2-[2-(2-hydroxy-5-methyl-phenyl)-phenethyl]-N,N-dimethylpiperidine Bromide] are 0.0477 ± 0.0119 µM and 0.061 ± 0.0218 µM. The corresponding values for `COc1ccc(O)c(C(CC2CCCC[N+]2(C)C)c2ccccc2)c1` (centres unmarked) [I-9, 2-[2-(2-hydroxy-5-methoxyphenyl)-phenethyl]-N,N-dimethylpiperidine Bromide] are 0.16 ± 0.0203 µM and 0.1 ± 0.0102 µM. On the same counts, the results for `CN1CCCCC1CC(c1ccccc1O)c1ccccc1O` (racemic) [II-3, 2-[2,2-bis(2-hydroxy-phenyl)-ethyl]-N-methylpiperidine] are 0.0131 ± 0.0019 µM and 0.0434 ± 0.0106 µM. As to `CN1CCCCC1CC(c1ccccc1O)c1ccccc1O` (single isomer, unassigned) [II-3-2, 2-[2,2-bis(2-hydroxy-phenyl)-ethyl]-N-methylpiperidine], the IC50 at M3 receptor (HT-29 cells) is 0.0673 ± 0.0066 µM; at M1 receptor (CHO-K1-M1 cells) it was 0.0534 ± 0.0162 µM.

As for `Cc1ccc(O)c(C(CC2CCCCN2C)c2ccsc2)c1` (centres unmarked) [II-22, 2-[2-(3-thienyl)-2-(2-hydroxy-5-methyl-phenyl)-ethyl]-N-methylpiperidine], on M3 receptor (HT-29 cells), the IC50 stood at 0.0207 ± 0.0036 µM. Regarding `CN1CCCCC1CC(c1ccccc1)c1cc(O)ccc1O` (centres unmarked) [II-11, 2-[2-(2,5-dihydroxy-phenyl)-phenethyl]-N-methylpiperidine], the IC50 on M3 receptor (HT-29 cells) came out at 0.37 ± 0.159 µM; on M1 receptor (CHO-K1-M1 cells) it was 0.19 ± 0.0358 µM.

Take `CN1CCCCC1CC(c1ccccc1)c1cc(C(F)(F)F)ccc1O` (centres unmarked) [II-13, 2-[2-(2-hydroxy-5-trifluoromethyl-phenyl)-phenethyl]-N-methylpiperidine]: the IC50 at M3 receptor (HT-29 cells) was determined as 0.249 ± 0.0098 µM. On to `CCN1CCCCC1CC(c1ccccc1)c1cc(C)ccc1O` (centres unmarked) [II-18, 2-[2-(2-hydroxy-5-methyl-phenyl)-phenethyl]-N-ethylpiperidine], for which the IC50 at M3 receptor (HT-29 cells) is 0.239 ± 0.0332 µM; on M1 receptor (CHO-K1-M1 cells), 0.296 ± 0.0629 µM.

As to `C[N+]1(C)CCCCC1CC(c1ccccc1)c1ccccc1O` (centres unmarked) [I-2a-2-Br, 2-[2-(2-hydroxy-phenyl)-phenethyl]-N,N-dimethylpiperidine Bromide], the results for the half-maximal inhibitory concentration (IC50) on M3 receptor (HT-29 cells) and on M1 receptor (CHO-K1-M1 cells) were 0.0284 ± 0.0061 µM and 0.0338 ± 0.0086 µM, respectively.

For the compound `Cc1ccc(O)c(C(CC2CCCCN2C)c2ccc(Cl)cc2)c1` (centres unmarked) [II-14, 2-[2-(4-chlorophenyl)-2-(2-hydroxy-5-methylphenyl)ethyl]-N-methylpiperidine], the concentration for half-maximal inhibition (IC50) at M3 receptor (HT-29 cells) worked out at 0.149 ± 0.0395 µM; on M1 receptor (CHO-K1-M1 cells), 0.129 ± 0.0298 µM. As to `C[N+]1(C)CCCCC1CC(c1ccccc1)c1cc(F)ccc1O` (single isomer, unassigned) [I-10b, 2-[2-(2-hydroxy-5-fluorophenyl)-phenylethyl]-N,N-dimethylpiperidine bromide], the IC50 on M3 receptor (HT-29 cells) turned out to be 0.0121 ± 0.0053 µM; at M1 receptor (CHO-K1-M1 cells), 0.0232 ± 0.0121 µM. In the case of `Cc1ccc(OC(=O)C(C)C)c(C(CC2CCCC[N+]2(C)C)c2ccccc2)c1` (centres unmarked) [I-23, 2-[2-(2-isobutyryl estergroup-5-methyl-phenyl)-phenethyl]-N,N-dimethylpiperidine Bromide], the IC50 was determined as 0.79 ± 0.075 µM at M3 receptor (HT-29 cells) and 2.53 ± 0.48 µM on M1 receptor (CHO-K1-M1 cells). As for `CCc1ccc(O)c(C(CC2CCC[N+]2(C)C)c2ccccc2)c1` (centres unmarked) [I-20, 2-[2-(2-hydroxy-5-ethyl-phenyl)-phenethyl]-N,N-dimethylpyrrolidine Bromide], the IC50 on M3 receptor (HT-29 cells) amounted to 0.0532 ± 0.0093 µM; on M1 receptor (CHO-K1-M1 cells), 0.089 ± 0.0073 µM. Regarding `COc1ccccc1C(CC1CCCCN1C)c1ccccc1` (centres unmarked) [II-17], the IC50 on M3 receptor (HT-29 cells) was 3.42 ± 0.33 µM; at M1 receptor (CHO-K1-M1 cells) it was 6.7 ± 0.81 µM. On the same counts, the results for `CCCc1ccc(O)c(C(CC2CCCCN2C)c2ccccc2)c1` (centres unmarked) [II-6] are 0.11 ± 0.0139 µM and 0.0732 ± 0.0125 µM. The corresponding values for `CCc1ccc(O)c(C(CC2CCCC[N+]2(C)C)c2ccccc2)c1` (centres unmarked) [I-5-I, 2-[2-(2-hydroxy-5-ethyl-phenyl)-phenethyl]-N,N-dimethylpiperidine Iodide] are 0.0188 ± 0.0023 µM and 0.02 ± 0.0023 µM. `C[N+]1(C)CCCCC1CC(c1ccccc1)c1cc(F)ccc1O` (single isomer, unassigned) [I-10b-2, 2-[2-(2-hydroxy-5-fluorophenyl)-phenylethyl]-N,N-dimethylpiperidine bromide]: on M3 receptor (HT-29 cells), the IC50 is 0.164 ± 0.0126 µM. As for `Cc1ccc(OC(=O)c2ccccc2)c(C(CC2CCCCN2C)c2ccccc2)c1` (centres unmarked) [II-25, 2-[2-(2-benzoate Group-5-methyl-phenyl)-phenethyl]-N-methylpiperidine], the IC50 came to 2.97 ± 0.7 µM on M3 receptor (HT-29 cells) and 1.6 ± 0.2 µM at M1 receptor (CHO-K1-M1 cells). On M3 receptor (structure-activity comparison with parent compound), the “antagonistic activity against the M3 receptor, in words” value was “the activity is greatly decreased”. Moreover, the “antagonistic activity against the M1 receptor, in words” value at M1 receptor is “the activity is greatly decreased”.

In the case of `CN1CCCCC1CC(c1ccccc1)c1cccs1` (centres unmarked) [II-21], the half-inhibitory concentration (IC50) was determined as 2.42 ± 0.33 µM at M3 receptor (HT-29 cells) and 3.68 ± 0.81 µM at M1 receptor (CHO-K1-M1 cells).

In the case of `Cc1ccc(O)c(C(CC2CCCC[N+]2(C)C)c2ccccc2)c1` (centres unmarked) [I-4a-I, 2-[2-(2-hydroxy-5-methyl-phenyl)-phenethyl]-N,N-dimethylpiperidine Iodide], the IC50 at M3 receptor (HT-29 cells) was found to be 0.0093 ± 0.001 µM; on M1 receptor (CHO-K1-M1 cells), 0.0138 ± 0.0015 µM. Regarding `CN1CCCCC1CC(c1ccccc1)c1cc(F)ccc1O` (single isomer, unassigned) [II-10a, 2-[2-(2-hydroxy-5-fluorophenyl)-phenethyl]-N-methylpiperidine], the figures for the 50% inhibitory concentration (IC50) at M3 receptor (HT-29 cells) and at M1 receptor (CHO-K1-M1 cells) were 0.0493 µM and 0.0532 ± 0.0125 µM, respectively. The corresponding values for `CCc1ccc(O)c(C(CC2CCCN2C)c2ccccc2)c1` (centres unmarked) [II-20] are 0.258 ± 0.0304 µM and 0.063 ± 0.0075 µM.

With `CN1CCCCC1CC(c1ccccc1)c1ccccc1O` (centres unmarked) [II-2a, 2-[2-(2-hydroxy-phenyl)phenethyl]-N-methylpiperidine], on M3 receptor (HT-29 cells, FIG. 2), the “DMR response signal of the compound itself” value was “almost zero”. As to “2-[2-(2-hydroxy-5-fluorophenyl)-phenylethyl]-N,N-dimethylpiperidine bromide [I-10b]”, the IC50 at M3 receptor (HT-29 cells) worked out at 0.109 ± 0.0394 µM. Same read-out and setting: with `C[N+]1(C)CCCCC1CC(c1ccccc1)c1cc(F)ccc1O` (centres unmarked) [I-10b-1, 2-[2-(2-hydroxy-5-fluorophenyl)-phenylethyl]-N,N-dimethylpiperidine bromide] the figure was 0.0352 ± 0.0063 µM. As for `C[N+]1(C)CCCCC1CC(c1ccccc1)c1cc(F)ccc1O` (single isomer, unassigned) [I-10a, 2-[2-(2-hydroxy-5-fluorophenyl)-phenylethyl]-N,N-dimethylpiperidine bromide], the half-inhibitory concentration (IC50) at M1 receptor (CHO-K1-M1 cells) was found to be 0.0132 ± 0.0012 µM.

On to `CCCCCOc1ccc(O)c(C(CC2CCCCN2C)c2ccccc2)c1` (centres unmarked) [II-12, 2-[2-(2-hydroxy-5-pentyloxy-phenyl)-phenethyl]-N-methylpiperidine], for which the IC50 on M3 receptor (HT-29 cells) is 0.62 ± 0.0494 µM. As to `C[N+]1(C)CCCCC1CC(c1ccccc1)c1cc(F)ccc1O` (single isomer, unassigned) [I-10a-2, 2-[2-(2-hydroxy-5-fluorophenyl)-phenylethyl]-N,N-dimethylpiperidine bromide], the IC50 at M3 receptor (HT-29 cells) is 0.0829 ± 0.0117 µM.

For the compound “2-[2-(2-methyl p-toluenesulfonate group-5-methyl-phenyl)-phenethyl]-N,N-dimethylpiperidine Bromide [I-26]”, the 50% inhibitory concentration (IC50) on M3 receptor (HT-29 cells) amounted to 0.793 ± 0.0697 µM. Consider `CCc1ccc(O)c(C(CC2CCCCN2C)c2ccccc2)c1` (centres unmarked), for which the “DMR response signal of the compound itself” value at M1 receptor (CHO-K1-M1 cells, FIG. 1) is “almost zero”. For the same compound, the “antagonistic activity against the M1 receptor, in words” value on M1 receptor is given as “the highest”.
